Format in all cases: cell-based
Assay [1] has as its system Burkholderia cepacia genomovar III, LMG16656 (wild type). Put plainly: microbe, parasite or virus in culture.
Assay [2] relates to Klebsiella pneumoniae (CRE) CHS 67 (NR48569) colistin-resistant strain. Put plainly: microbe, parasite or virus in culture. The following applies: 24 h.
The subject of assay [3] is Escherichia coli serotype O157 (TW07793) colistin-resistant strain. Put plainly: microbe, parasite or virus in culture. The following applies: 24 h.
Assay [4] relates to E. coli ATCC35218 colistin^R. The note with it: 30 min; reference molecule at 10 mg/mL.
For assay [5], the system named is Klebsiella pneumoniae (ATCC 19606). Briefly: MIC by broth dilution. The note with it: Klebsiella pneumoniae, ATCC19606, 24 h, entry 9.
In assay [6] the test system is Pseudomonas aeruginosa (ATCC 27853) - intermediate colistin-resistant strain. Put plainly: microbe, parasite or virus in culture.
Assay [7] relates to Acinetobacter baumannii (ATCC BAA1800). Put plainly: MIC by broth dilution. (Broth dilution looks for growth in wells or tubes with falling amounts of substance.)
Assay [8] has as its system Acinetobacter baumannii (ATCC19606). Briefly: MIC by broth dilution.
The test system of assay [9] is Salmonella enterica Pennsylvania, Serovar Typhimurium, Isolate 1 (NR4333) colistin-resistant strain. Put plainly: microbe, parasite or virus in culture. The note with it: 24 h.
Assay [10] concerns Pseudomonas aeruginosa MRSN 1380 (NR51522). Briefly: MIC by broth dilution. The following applies: 24 h.
Assay [11] has as its system Acinetobacter baumannii (ATCC19606) colistin-resistant strain. Briefly: microbe, parasite or virus in culture.
The subject of assay [12] is Burkholderia thailandensis E264 (Wild type). Briefly: microbe, parasite or virus in culture. The following applies: 24 h.
The subject of assay [13] is Proteus mirabilis urine strain WGLW4 (Wild type). Briefly: MIC by broth dilution. The following applies: 24 h.
Assay [14] has as its system Burkholderia cepacia genomovar III, LMG16656 colistin-resistant strain. Put plainly: microbe, parasite or virus in culture. The note with it: broth dilution, 24 h, entry 25.
Assay [15] concerns Pseudomonas aeruginosa (ATCC 27853) - high colistin-resistant strain. Put plainly: microbe, parasite or virus in culture.
Assay [16] relates to Burkholderia multivorans CGD1 colistin-resistant strain. Briefly: microbe, parasite or virus in culture. The note with it: broth dilution, 24 h, entry 21.
Assay [17] relates to Pseudomonas aeruginosa MRSN 1380 (NR51522) colistin-resistant strain. Briefly: microbe, parasite or virus in culture. The note with it: 24 h.
Assay [18] has as its system Burkholderia multivorans CGD1 (wild type). Put plainly: MIC by broth dilution. The note with it: 24 h.
In assay [19] the test system is Salmonella enterica subsp. enterica Typhimurium (BAA 2721) (Wild type). Put plainly: MIC by broth dilution. The note with it: 24 h.
Assay [20] relates to Pseudomonas aeruginosa MRSN 1356 (NR51521). Briefly: MIC by broth dilution. The following applies: 24 h.
The subject of assay [21] is Pseudomonas aeruginosa (ATCC 27853). Put plainly: MIC by broth dilution.
Assay [22] deals with Klebsiella pneumoniae (CRE) CHS 67 (NR48569). Briefly: MIC by broth dilution. The following applies: 24 h.
The test system of assay [23] is Klebsiella pneumoniae colistin-resistant strain. Briefly: microbe, parasite or virus in culture. The following applies: Klebsiella pneumoniae, ATCC19606, 24 h.
Assay [24] relates to Pseudomonas aeruginosa MRSN 1356 (NR51521) colistin-resistant strain. Briefly: microbe, parasite or virus in culture. The following applies: 24 h.
In assay [25] the test system is Salmonella enterica Pennsylvania, Serovar Typhimurium, Isolate 1 (NR4333). Briefly: MIC by broth dilution. The note with it: 24 h.
The test system of assay [26] is Burkholderia thailandensis E264 colistin-resistant strain. Put plainly: microbe, parasite or virus in culture.
The test system of assay [27] is Serratia sp. strain Ag2 colistin-resistant strain. Briefly: microbe, parasite or virus in culture. The note with it: 24 h.
Assay [28] has as its system Acinetobacter baumannii (ATCC BAA1800) colistin-resistant strain. Put plainly: microbe, parasite or virus in culture.
For assay [29], the system named is Serratia sp. strain Ag2 (Wild-type). Briefly: MIC by broth dilution.
The test system of assay [30] is Escherichia coli (ATCC 35218). Briefly: MIC by broth dilution.
Assay [31] concerns Escherichia coli (ATCC 35218) colistin-resistant strain. Put plainly: microbe, parasite or virus in culture.
Assay [32] relates to Salmonella enterica subsp. enterica Typhimurium (BAA 2721) intermediate colistin-resistant strain. Put plainly: microbe, parasite or virus in culture. The following applies: 24 h.
In assay [33] the test system is Proteus mirabilis urine strain WGLW4 colistin-resistant strain. Briefly: microbe, parasite or virus in culture. The note with it: 24 h.
Assay [34] relates to Escherichia coli serotype O157 (TW07793). Put plainly: microbe, parasite or virus in culture. The following applies: broth dilution, 24 h, entry 3.
The subject of another assay is Klebsiella pneumoniae. Briefly: MIC by broth dilution. The following applies: 24 h, entry 9.
For assay [35], the system named is Klebsiella pneumoniae (ATCC 19606) colistin-resistant strain. Put plainly: microbe, parasite or virus in culture. The following applies: broth dilution, 24 h; entry 10.
In assay [36] the test system is colistin-resistant Gram-negative bacteria. The following applies: under a fluorescent light.
Setting [37] is: Pseudomonas aeruginosa, ATCC27853, 24 h.

We go through three compounds from patent US20240325341A1, “ANTI-BACTERIAL EFFECT OF HALOGENATED FLUORESCEINS AGAINST COLISTIN-RESISTANT GRAM-NEGATIVE BACTERIA” (priority 2023, published 2024).

In brackets after ≈: the same amount, converted by molar mass. Where two headings read alike, the source gives them in different places. Some results are limits rather than exact numbers.

Consider `C[C@@H](O)[C@H]1C(=O)N2C(C(=O)O)=C(S[C@@H]3CN[C@H](C(=O)N(C)C)C3)[C@H](C)[C@H]12` [Meropenem], for which the MIC in assay [1] (Burkholderia cepacia, LMG16656, 24 h) is 25 µg/mL (≈ 65.2 µM); in [2] (Klebsiella pneumoniae), more than 100 µg/mL; in assay [3] (Escherichia coli) it was 12.5 µg/mL (≈ 32.6 µM); in [5] it was more than 100 µg/mL; in assay [6] (setting [37]) it was more than 100 µg/mL; in [7] (Acinetobacter baumannii, ATCCBAA1800, 24 h, entry 7, read-out: MIC) it was more than 100 µg/mL. Also, the MIC was 100 µg/mL (≈ 261 µM) in [8] (Acinetobacter baumannii, ATCC19606, 24 h, entry 5, read-out: MIC); more than 100 µg/mL in assay [9] (Salmonella enterica); 3.13 µg/mL (≈ 8.16 µM) in [10] (Pseudomonas aeruginosa, entry 18, read-out: MIC); more than 100 µg/mL in assay [11] (Acinetobacter baumannii, ATCC19606, 24 h); 12.5 µg/mL (≈ 32.6 µM) in [12] (Burkholderia thailandensis); more than 200 µg/mL in assay [13] (Proteus mirabilis, entry 30, read-out: MIC). Moreover, the MIC in assay [14] (Burkholderia cepacia, LMG16656, read-out: MIC) is 100 µg/mL (≈ 261 µM); in assay [15] (setting [37]), more than 100 µg/mL; in [16] (Burkholderia multivorans, read-out: MIC), more than 100 µg/mL; in [17] (Pseudomonas aeruginosa) it was 100 µg/mL (≈ 261 µM); in assay [18] (Burkholderia multivorans, entry 20, read-out: MIC), 25 µg/mL (≈ 65.2 µM); in assay [19] (Salmonella enterica, entry 26, read-out: MIC), 3.1 µg/mL (≈ 8.08 µM). Moreover, the MIC was more than 100 µg/mL in assay [20] (Pseudomonas aeruginosa, entry 16, read-out: MIC); more than 100 µg/mL in [21] (Pseudomonas aeruginosa, ATCC27853, 24 h, entry 13, read-out: MIC); more than 100 µg/mL in assay [22] (Klebsiella pneumoniae, entry 11, read-out: MIC); more than 100 µg/mL in assay [23]; more than 100 µg/mL in assay [24] (Pseudomonas aeruginosa); 1.6 µg/mL (≈ 4.17 µM) in assay [25] (Salmonella enterica, entry 28, read-out: MIC). Besides, the MIC in assay [26] (Burkholderia thailandensis, 24 h) was more than 100 µg/mL; in [27] (Serratia) it was 12.5 µg/mL (≈ 32.6 µM); in assay [28] (Acinetobacter baumannii, ATCCBAA1800, 24 h) it was more than 100 µg/mL; in assay [29] (Serratia, 24 h, entry 32, read-out: MIC), 0.039 µg/mL (≈ 0.102 µM); in assay [29] (Table 1, 24 h) it was 4000 µg/mL (≈ 10400 µM); in [30] (Escherichia coli, ATCC35218, 24 h, entry 1, read-out: MIC), less than 0.8 µg/mL. For the same compound, the MIC in assay [31] (Escherichia coli, ATCC35218, 24 h) was 25 µg/mL (≈ 65.2 µM); in assay [32] (Salmonella enterica), 6.25 µg/mL (≈ 16.3 µM); in [33] (Proteus mirabilis), more than 200 µg/mL; in assay [34] (Escherichia coli, read-out: MIC), 1.6 µg/mL (≈ 4.17 µM). For the same compound, the “reduction of strain (CFU)” value in assay [4] was determined as 0%.

Amikacin: the MIC in assay [1] (broth dilution, 24 h, entry 24) is more than 100 µg/mL; in [2] (broth dilution, entry 12), more than 100 µg/mL; in assay [3] (broth dilution, entry 4) it was 25.0 µg/mL; in the assay with Klebsiella pneumoniae, 4.0 µg/mL; in assay [6] (broth dilution, 24 h, entry 14), more than 100 µg/mL; in assay [7] (24 h, entry 7), 64.0 µg/mL. The MIC in [8] (24 h, entry 5) is 16.0 µg/mL; in [9] (broth dilution, entry 29) it was more than 100 µg/mL; in assay [10] (entry 18), 64.0 µg/mL; in assay [11] (broth dilution, 24 h, entry 6), more than 100 µg/mL; in assay [12] (broth dilution, entry 22), 64.0 µg/mL; in assay [13] (entry 30), more than 200 µg/mL. Also, the MIC in assay [14] is more than 200 µg/mL; in assay [15] (broth dilution, 24 h, entry 15) it was more than 200 µg/mL; in assay [16] it was more than 200.0 µg/mL; in assay [17] (broth dilution, entry 19), more than 100 µg/mL; in assay [18] (entry 20) it was 200.0 µg/mL; in assay [19] (entry 26), 1.6 µg/mL. In addition, the MIC in [20] (entry 16) is 32.0 µg/mL; in assay [21] (24 h, entry 13) it was 32.0 µg/mL; in assay [22] (entry 11), 16.0 µg/mL; in assay [35] it was 64.0 µg/mL; in assay [24] (broth dilution, entry 17), more than 100 µg/mL; in [25] (entry 28), 1.6 µg/mL. Also, the MIC was more than 200 µg/mL in [26]; more than 200 µg/mL in assay [27] (broth dilution, entry 33); more than 100 µg/mL in assay [28] (broth dilution, 24 h, entry 8); more than 200 µg/mL in assay [29] (24 h, entry 32); 3.1 µg/mL in assay [30] (24 h, entry 1); more than 100 µg/mL in assay [31] (broth dilution, 24 h, entry 2). In addition, the MIC in [32] (broth dilution, entry 27) was more than 100 µg/mL; in assay [33] (broth dilution, entry 31), more than 200 µg/mL; in [34], 1.6 µg/mL. In assay [4], the “reduction of strain (CFU)” value is on record as “about 3.5%”.

Regarding `O=C1OC2(c3cc(I)c(O)c(I)c3Oc3c2cc(I)c(O)c3I)c2c(Cl)c(Cl)c(Cl)c(Cl)c21` [RB, 4,5,6,7-tetrachloro-2′,4′,5′,7′-tetraiodo-fluorescein], in assay [36], the bactericidal activity was 0.05 to 6.25 µg/mL.
